Measured values published in ChEMBL document CHEMBL1201862, “PubChem BioAssay data set” (2004).
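Five concentrations, 48 hours, 96-well plates. Abbreviation: GI50, concentration required for 50% inhibition of growth.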 Active and inactive are the calls of the source. No stated cut-off is given here; in the data, active = GI50 up to about 1.1 µM and inactive = higher.

Tests used:
Assay in all cases: growth of human tumour cells (NCI), 48 h
NCI-H522 = test system: NCI-H522
OVCAR-3 = test system: OVCAR-3
M14 = test system: M14
KM12 = test system: KM12
RPMI-8226 = test system: RPMI-8226
OVCAR-4 = test system: OVCAR-4
EKVX = test system: EKVX
786-0 = test system: 786-0
HCT-15 = test system: HCT-15
SF-295 = test system: SF-295
HCT-116 = test system: HCT-116
UO-31 = test system: UO-31
SK-MEL-2 = test system: SK-MEL-2
U-251 = test system: U-251
LOX IMVI = test system: LOX IMVI
MOLT-4 = test system: MOLT-4
SK-MEL-28 = test system: SK-MEL-28

## CC1CC2C(=O)NC(=O)C2c2[nH]c3ccccc3c21 (centres undefined)
NCI-H522
  GI50: 51.4 µM (inactive)
OVCAR-3
  GI50: 96.2 µM (inactive)
M14
  GI50: > 100 µM (inactive)
KM12
  GI50: > 100 µM (inactive)
RPMI-8226
  GI50: > 100 µM (inactive)
OVCAR-4
  GI50: 92.7 µM (inactive)
EKVX
  GI50: > 100 µM (inactive)
786-0
  GI50: > 100 µM (inactive)
HCT-15
  GI50: > 100 µM
SF-295
  GI50: > 100 µM (inactive)
HCT-116
  GI50: > 100 µM (inactive)
UO-31
  GI50: 71.4 µM (inactive)
SK-MEL-2
  GI50: > 100 µM (inactive)
U-251
  GI50: > 100 µM (inactive)
LOX IMVI
  GI50: > 100 µM (inactive)
MOLT-4
  GI50: > 100 µM (inactive)

## CC1CC2(CCC1OCc1ccccc1)OCCO2 (centres undefined)
NCI-H522
  GI50: > 100 µM (inactive)
OVCAR-3
  GI50: > 100 µM (inactive)
M14
  GI50: > 100 µM (inactive)
KM12
  GI50: > 100 µM (inactive)
RPMI-8226
  GI50: > 100 µM (inactive)
OVCAR-4
  GI50: > 100 µM (inactive)
EKVX
  GI50: > 100 µM (inactive)
786-0
  GI50: > 100 µM (inactive)
HCT-15
  GI50: > 100 µM
SF-295
  GI50: > 100 µM (inactive)
HCT-116
  GI50: > 100 µM (inactive)
UO-31
  GI50: > 100 µM (inactive)
SK-MEL-2
  GI50: > 100 µM (inactive)
U-251
  GI50: > 100 µM (inactive)
LOX IMVI
  GI50: > 100 µM (inactive)
MOLT-4
  GI50: > 100 µM (inactive)

## Nn1c(-c2cccc(Cl)c2)nc2ccccc2c1=O
NCI-H522
  GI50: > 100 µM (inactive)
OVCAR-3
  GI50: > 100 µM (inactive)
M14
  GI50: > 100 µM (inactive)
KM12
  GI50: > 100 µM (inactive)
RPMI-8226
  GI50: > 100 µM (inactive)
OVCAR-4
  GI50: > 100 µM (inactive)
EKVX
  GI50: > 100 µM (inactive)
786-0
  GI50: > 100 µM (inactive)
HCT-15
  GI50: > 100 µM
SF-295
  GI50: > 100 µM (inactive)
HCT-116
  GI50: > 100 µM (inactive)
UO-31
  GI50: > 100 µM (inactive)
SK-MEL-28
  GI50: > 100 µM (inactive)
SK-MEL-2
  GI50: > 100 µM (inactive)
U-251
  GI50: > 100 µM (inactive)
MOLT-4
  GI50: 60.1 µM (inactive)

## COC(=O)C1C(=O)NC2(C)CC1c1ccccc1O2 (centres undefined)
NCI-H522
  GI50: > 100 µM (inactive)
OVCAR-3
  GI50: > 10 µM (inactive)
M14
  GI50: > 10 µM (inactive)
KM12
  GI50: > 100 µM (inactive)
RPMI-8226
  GI50: > 100 µM (inactive)
OVCAR-4
  GI50: > 100 µM (inactive)
786-0
  GI50: > 100 µM (inactive)
HCT-15
  GI50: > 100 µM
SF-295
  GI50: > 100 µM (inactive)
HCT-116
  GI50: > 100 µM (inactive)
UO-31
  GI50: > 100 µM (inactive)
SK-MEL-28
  GI50: > 100 µM (inactive)
SK-MEL-2
  GI50: > 100 µM (inactive)
U-251
  GI50: > 100 µM (inactive)
LOX IMVI
  GI50: > 100 µM (inactive)
MOLT-4
  GI50: > 100 µM (inactive)
